Here are results for 59 compounds from the METLIN SMRT retention time set (Domingo-Almenara et al. 2019).

The series is described as follows: gradient 5% acetonitrile 3 min, to 50% in 2 min, to 85% in 15 min, held 3 min, 100 µL/min. The note with it: column: Zorbax Extend-C18 2.1 x 50 mm; eluents: water / acetonitrile, 0.1% formic acid. The procedure, abridged:
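Using water and acetonitrile that each contained 0.1% formic acid, mixtures of ~100 pure standards were separated at 100 μL/min on a Zorbax Extend-C18 column (2.1 × 50 mm, 1.8 μm). The HPLC fed a quadrupole time-of-flight mass spectrometer working in positive and negative ionization mode, with dead and dwell volumes of 40 μL and 900 μL. Data were acquired over 3 months. Retention time was read from computationally picked adduct peaks after manual inspection of each.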
Compound `O=C(NCc1cnoc1-c1ccc(F)cc1)c1ccc2c(c1)OCO2` showed an RP-LC retention time of 881 s.

`CC(C)CNC(=O)N(C)Cc1nc2cc(C(=O)NC(C)C)ccc2n1C` came in with an RP-LC retention time of 593 s.

Consider `CCN(CC)S(=O)(=O)c1cc(-c2nnc(-c3ccc(OC)c(OC)c3)o2)ccc1Cl`, for which the RP-LC retention time was found to be 1010 s.

For the compound `CCC(=O)N1CCN(c2nc(C)cc(N3CCOCC3)n2)CC1`, the RP-LC retention time was found to be 578 s.

The compound `CCC(=O)N(C1CCOCC1)C1CCN(S(=O)(=O)c2ccc(CC)cc2)CC1` returned an RP-LC retention time of 908 s.

As to `CC(C)(C)CC(=O)NCCn1c(=O)n(Cc2ccc(F)cc2)c2cccnc21`, the RP-LC retention time was 808 s.

Compound `O=C(NC1CCCC1)C1CCN(S(=O)(=O)c2cc(C(=O)N3CCCC3)cs2)CC1` displayed an RP-LC retention time of 644 s.

For `O=C(CN1C(=O)CCc2cc(Br)ccc21)Nc1ccc(F)cc1`, the RP-LC retention time is 903 s.

As for `CC(C)c1cccc(NC(=O)Cn2ccc3sccc3c2=O)c1`, the RP-LC retention time was 878 s.

As for `CC1CN(C(=O)Cn2cc(SCC(=O)NC3CCCCC3)c3ccccc32)CC(C)O1` (centres undefined), the RP-LC retention time amounted to 879 s.

`Cc1ccc(-c2nc(-c3ccc(NS(=O)(=O)c4cccs4)cc3)no2)cc1F` displayed an RP-LC retention time of 1180 s.

Turning to `CC1CCN(C(=O)Cc2nnc3cc(-c4nc(C(C)C)no4)ccn23)CC1`, the RP-LC retention time is 770 s.

Compound `O=C(c1sc(N2CCCCC2)nc1-c1ccccc1)c1c[nH]c2ccccc12` yielded an RP-LC retention time of 1080 s.

For `O=C(NCc1cccnc1)c1cccn1-c1nnc(N2CCOCC2)s1`, the RP-LC retention time was 560 s.

The compound `COc1cccc(C(=O)Nc2nc(-c3ccc4c(c3)NC(=O)C(C)O4)c(C)s2)c1` (centres undefined) yielded an RP-LC retention time of 964 s.

`CCc1ccc(OCc2nc(C)c(C(=O)Nc3nc(-c4ccccc4OC)cs3)s2)cc1` yielded an RP-LC retention time of 1310 s.

On to `Cn1nccc1C(=O)N1CCCC1c1cccc(F)c1` (centres undefined), for which the RP-LC retention time came out at 758 s.

As for `CCOC(=O)c1[nH]c(C)c(CCC(=O)N2CCCC(C(=O)NC3CCCCCC3)C2)c1C` (centres undefined), the RP-LC retention time was 868 s.

`O=C(Nc1ccc(OCC(=O)N2CCN(c3cccc(Cl)c3)CC2)nc1)C1CC1` showed an RP-LC retention time of 836 s.

Compound `CCOC(=O)c1c(N)n(-c2ccccc2OC)c2nc3ccccc3nc12` displayed an RP-LC retention time of 691 s.

In the case of `O=c1n(Cc2c(F)cccc2Cl)nc2ccc(S(=O)(=O)N3CCCC3)cn12`, the RP-LC retention time is 885 s.

In turn, `Cc1nc2cccnc2n1CC1CCCN(S(=O)(=O)c2cc(F)ccc2F)C1` (centres undefined) gave an RP-LC retention time of 703 s.

The compound `CCc1ccc(NC(=O)C2CCN(c3c(C(=O)N(CC)CC)cnc4snc(C)c34)CC2)cc1` had an RP-LC retention time of 687 s.

As for `COCCNc1c(-c2cccc(F)c2)nc2sc(C(N)=O)c(C)n12`, the RP-LC retention time came to 696 s.

As for `Cc1cccc(-c2nnc(-c3cc(S(=O)(=O)N4CCCCC4)ccc3Cl)o2)c1`, the RP-LC retention time is 1210 s.

The compound `COc1ccc(-c2nc(C3CC(=O)N(c4ccc(OC)c(OC)c4)C3)no2)cc1OC` (centres undefined) had an RP-LC retention time of 787 s.

Take `COc1ccc(OC)c(NC(=O)C(=O)c2ccc[nH]2)c1`: the RP-LC retention time amounted to 909 s.

In the case of `Cc1cc(C)n(CCC(=O)N2CC(Oc3cccc(-c4nc(-c5ccccc5)no4)c3)C2)n1`, the RP-LC retention time was 1000 s.

In the case of `CC(NC(=O)Cn1cc(C(=O)C2CC2)c2ccccc21)c1ccc2c(c1)OCCCO2` (centres undefined), the RP-LC retention time is 866 s.

`COc1ccc(C(=O)CC2(O)C(=O)Nc3ccc(C)cc32)c(OC)c1OC` (centres undefined) displayed an RP-LC retention time of 722 s.

Turning to `COc1ccc(NC(=O)N2CCCC(Cn3cnc4cccnc43)C2)cc1Cl` (centres undefined), the RP-LC retention time is 692 s.

Turning to `COc1ccc(N2CCN(C(=O)c3cc4c(-c5cccs5)nn(-c5ccccc5)c4n3C)CC2)cc1`, the RP-LC retention time came out at 1120 s.

Compound `CCc1nnc(NS(=O)(=O)c2ccc(NC(=O)c3ccco3)cc2)s1` yielded an RP-LC retention time of 680 s.

For the compound `CC1CC(=O)N(CC(=O)Nc2cccc(C(F)(F)F)c2)c2ccccc2S1(=O)=O` (centres undefined), the RP-LC retention time was found to be 875 s.

`CCSc1ccc(Cc2nnc(NC(=O)c3ccc(S(=O)(=O)N(C)C)cc3)o2)cc1` returned an RP-LC retention time of 819 s.

`COc1ccccc1NC(=O)NCC(c1cccnc1)c1c[nH]c2ccccc12` (centres undefined) came in with an RP-LC retention time of 657 s.

On to `CCCn1cc(S(=O)(=O)Nc2cccc(CC)c2)c2cccnc21`, for which the RP-LC retention time is 943 s.

For the compound `COc1ccc(SCCCC(=O)Nc2cccc(C)c2C)cc1`, the RP-LC retention time is 906 s.

With `Cc1cc(C)c(C(=O)N2CCCC(C(=O)NCc3cccc(Br)c3)C2)[nH]1` (centres undefined), the RP-LC retention time amounted to 855 s.

The compound `CCN1CCN(C(=O)C2CCN(S(=O)(=O)c3c(C)nn(-c4ccc(Cl)cc4)c3C)CC2)CC1` gave an RP-LC retention time of 670 s.

For the compound `CCc1nc2cc(-c3noc(Cc4ccc(NC(C)=O)cc4)n3)ccc2o1`, the RP-LC retention time stood at 916 s.

As to `O=C(NCc1cccc2ccccc12)NCC1CCN(C(=O)Oc2ccccc2)CC1`, the RP-LC retention time stood at 866 s.

`O=S(=O)(c1cccc(Cl)c1)N1CCC2(CCN(c3cccnc3)C2)C1` (centres undefined) registered an RP-LC retention time of 680 s.

As for `COCCN1C(=O)CCc2cc(NS(=O)(=O)c3ccc(C)c(C)c3)ccc21`, the RP-LC retention time turned out to be 816 s.

`O=C(COc1cccc(Cl)c1)N1CCCN(C2CCN(CC3CC3)C2=O)CC1` (centres undefined) yielded an RP-LC retention time of 574 s.

`COc1ccc(-c2cccc(NC(C)=O)c2)nn1` had an RP-LC retention time of 645 s.

Regarding `COc1ccc(-c2csc3c(=O)n(Cc4cccc(F)c4)cnc23)cc1`, the RP-LC retention time was 1050 s.

`COc1ccc(Cl)cc1S(=O)(=O)N1C[C@@H](F)C[C@H]1C(=O)N1CCCCC1` returned an RP-LC retention time of 785 s.

The compound `Cn1cc(CCN2CCN(S(=O)(=O)c3ccc(C#N)cc3)CC2)c2cccnc21` had an RP-LC retention time of 616 s.

Regarding `Cc1csc(-n2nc(C)c(CC(=O)Nc3cccc(Cl)c3)c2C)n1`, the RP-LC retention time is 1040 s.

On to `COCCN1C(=O)[C@H]2CN(Cc3cc(OC)cc(OC)c3)C[C@H]2C1=O`, for which the RP-LC retention time worked out at 598 s.

The compound `Cc1cccc(N2CCN([C@H]3CS(=O)(=O)C[C@@H]3S(=O)(=O)c3ccc(F)c(C)c3)CC2)c1` yielded an RP-LC retention time of 986 s.

`COc1cccc(C(=O)N2CCC(Oc3nc4c(C)ccc(C)c4s3)CC2)c1OC`: the RP-LC retention time was found to be 1220 s.

`O=C(NCc1cccc(Br)c1)c1cn2ccccc2n1` displayed an RP-LC retention time of 730 s.

For the compound `O=C(c1ccccc1Br)N1CCc2nc[nH]c2C1`, the RP-LC retention time was 563 s.

As for `CCOC(=O)CNC(=O)N1CCCCCC1c1ccccc1Cl` (centres undefined), the RP-LC retention time came to 911 s.

Compound `Cc1ccc(C)n1-c1c(C(=O)N2CCN(c3ccccn3)CC2)sc2ncccc12` displayed an RP-LC retention time of 690 s.

Consider `Cc1csc(-c2cc(S(=O)(=O)NC3CCCC3)cn2CC(=O)N2CCCC2)n1`, for which the RP-LC retention time worked out at 848 s.

As to `CCCC(NC(=O)c1ccc(F)cc1)C(=O)Nc1nc2ccccc2[nH]1` (centres undefined), the RP-LC retention time was determined as 690 s.
